Assay results from US20260158140A1, “METHODS AND MATERIALS FOR IMPROVING T CELL THERAPIES” (Mayo Foundation for Medical Education and Research, priority 2021, published 2026).
Entries after “also recorded” stand apart in the source; their conditions may differ.

Experiments:
CART19 cells [1] = test: CART19 proliferation: co-culture with irradiated JeKo-1, absolute CD3+ T cell counts by flow cytometry; format: cell-based, human; conditions: 1 μM
Description: FIGS. 11A-11B. Proliferation. […] CART19 and irradiated JeKo-1 were co-cultured at 1:1 ratio for 24 hours in the presence of DMSO or vecabrutinib (1 μM or 10 μM) or ibrutinib (1 μM or 10 μM). Absolute CD3^+T cell counts were assessed by flow cytometry (*p<0.05, ****p<0.0001, two-way ANOVA). FIG. 11B) To further verify effect of BTK inhibition on CART19 proliferation, using different set of donors for CAR T cell production, CART19 and irradiated JeKo-1 were co-cultured at 1:1 ratio for 24 hours in the presence of DMSO or vecabrutinib (10 μM) or ibrutinib (10 μM).
For proliferation assays, CART19 cells were cultured with irradiated CD19^+ cell line Jeko-1 at a 1:1 ratio for 24 hours. Then, the cells were harvested and washed with flow buffer, following by surface staining with anti-hCD3 (eBioscience, San Diego, CA, USA) and LIVE/DEAD™ Fixable Aqua Dead Cell Stain Kit (Invitrogen, Carlsbad, CA, USA). […] Absolute quantification was obtained using volumetric measurement or CountBright absolute counting beads (Invitrogen, Carlsbad, CA, USA). […]
Next, the effect of vecabrutinib on CART19 proliferation was assessed. CART19 cells were cocultured with irradiated JeKo-1 cells for 24 hours in the presence of vecabrutinib (1 μM or 10 μM), and the absolute count of CART19 was measured by flow cytometry and used as a surrogate for proliferation. […]

[2] = system: CD19+ Mantle cell lymphoma cell line, Jeko-1; test: CART19 cytotoxicity: co-culture of CART19 or UTD T cells with JeKo-1, percent killing; format: cell-based, human
Description: FIGS. 1A-1C. […] CART19 and live JeKo-1 were co-cultured at 1:1 ratio for 24 hours in the presence of DMSO or vecabrutinib (1 μM or 10 μM). The percentage of killing were assessed relative to control (****p<0.0001, two-way ANOVA). […] CART19 and irradiated JeKo-1 were co-cultured at 1:1 ratio for 24 hours in the presence of DMSO or vecabrutinib (1 μM or 10 μM). Absolute CD3^+ T cell counts were assessed by flow cytometry (**p<0.01, two-way ANOVA) . […] JeKo-1 target cells were incubated with CART19 at a 5:1 ratio with monensin, hCD49d, and hCD28 in the presence of vecabrutinib at the indicated concentrations for 4 hours. Cells were then analyzed using intracellular flow cytometric assessment of CD107a as a marker for degranulation.
FIG. 10. CART19 cytotoxicity in the presence of Vecabrutinib versus the irreversible BTK inhibitor, Ibrutinib. CART19 or control cells (UTD) were cocultured at different effector-to-target ratio (E:T) with Jeko-1 cell line with vecabrutinib at 1 μM or 10 μM, or ibrutinib at 1 μM. At 24 hours, live Jeko cells numbers was measured by flow cytometry and percent killing was calculated relative to control (*p<0.05, **p<0.01, two-way ANOVA).
To investigate CAR T-specific cytotoxicity, CART19 cells or control UTD T cells were co-cultured with the CD19^+ Mantle cell lymphoma cell line, Jeko-1, at 1:1 ratio and treated with vehicle (DMSO) or vecabrutinib at 1 μM or 10 μM for 24 hours (FIG. 1A).
Measurement of CART19 killing of JeKo-1 cells at different effector to target ratios. […] Results were normalized to target cells incubated with the respective concentration of the BTK inhibitor alone (with no CART19) to eliminate the direct cytotoxic effect of the inhibitor on lymphoma cells without CART19. 10 μM of ibrutinib was not included as it caused 100% killing of CART19 cells and Jeko-1 cells (FIGS. 11A and 11B).

CART19 cells [3] = test: RNA-Seq of CART19 cells stimulated with irradiated JeKo-1 (differential expression, Ingenuity Pathway Analysis); format: cell-based, human; conditions: 10 μM vs vehicle
Description: CART19 and irradiated Jeko-1 cells were co-cultured at a 1:1 ration for 72 hours with DMSO or 10 μM Vecabrutinib. Three biological replicates of stimulated and unstimulated CART19 cells were included.
RNA was isolated using miRNeasy Micro kit (Qiagen, Gaithersburg, MD, USA) and treated with RNase-Free DNase Set (Qiagen, Gaithersburg, MD, USA). Total RNA was prepped with a SMARTer stranded total RNA-seq kit v2, Pico input mammalian (Takara, Mountain View, CA, USA). Total RNA (three samples per lane) was sequenced on an Illumina HiSeq 4000 (Illumina, San Diego, CA, USA). Library preparation and sequencing were performed by the Medical Genome Facility Genome, Analysis Core (Mayo Clinic, Rochester, MN, USA). Fastq files were viewed in FastQC v0.11.8 to check for quality. Adaptor sequences were removed using Cutadapt v1.18.46. Output files were re-checked for quality and adaptor removal using FastQC v0.11.8. The latest human (GRCh38) reference genomes were downloaded from NCBI. Genome index files were generated using STAR, and the paired end reads were mapped to the genome for each condition. HTSeq was used to generate expression counts for each gene, and DeSeq2 was used to calculate differential expression using adjusted p values <0.05. Heatmap was created using pheatmap (cran.r-project.org/web/packages/pheatmap/index.html). Networks were generated using Ingenuity Pathway Analysis v49932394 (QIAGEN, qiagenbioinformatics.com/products/ingenuity-pathway-analysis). Gene set enrichment analyses were performed using Enrichr (maayanlab.cloud/Enrichr/).
• Biological Replicates: C267, C278, C296 where CART19 cells were generated • Conditions: • Vehicle • 1 μM vecabrutinib • 10 μM vecabrutinib • Activated for 72 hours with Irradiated JeKo-1 (1:1 E:T Ratio) • mRNA was extracted from CART19 cells • RNA sequencing was performed
• FastQC (initial quality check) • Trimmomatic (trim adapters and overrepresented sequences) • FastQC (to confirm removal of the above) • STAR (align to the latest human genome annotation, GRCh38.p13) • HTSeq (obtain counts for each gene) • DESeq2 • Normalized counts across samples • Calculated differential expression between groups • Multiple hypothesis correction (Benjamini-Hochberg procedure)

luciferase+JeKo-1 cells = test: JeKo-1 xenograft model with CART19 plus oral vecabrutinib; format: in vivo; conditions: CART19 + vecabrutinib 50 mg/kg BID vs CART19 + vehicle, weekly weighing (FIG. 4C)
Description: FIGS. 4A-4C. Reversible BTK inhibition in vivo enhances CAR T cell antitumor activity in xenograft models. […] On day-14, NSG mice were injected with 1×10^6 luciferase+JeKo-1 cells intravenously. Gavage began on day −1 with vecabrutinib 50 mg/kg BID or vehicle. Untransduced T cells (UTD) or CART19 were infused on day 0. Mice were imaged weekly to assess the tumor burden. p/s=photons/seconds. […] Mice were bled weekly to measure CART19 by flow cytometry (*p<0.05, one-way ANOVA). FIG. 4C) Vecabrutinib decreases CRS. Mouse weight and wellbeing along with elevation of human cytokines represent a surrogate for the development of CRS intensity in mice receiving CART19. […]
6-8 week old, non-obese diabetic/severe combined immunodeficient female mice bearing a targeted mutation in the interleukin (IL)-2 receptor gamma chain gene (NSG) were obtained from Jackson Laboratories (Jackson Laboratories, Bar Harbor, ME, USA). […] Mice were weighed weekly, and measurements were recorded in grams. Tumor burden was measured weakly by imaging mice with a bioluminescent imager using an IVIS® Lumina S5 Imaging System (PerkinElmer, Hopkinton, MA, USA), and measurements were recorded in total flux (p/s). […] Absolute quantification was obtained using volumetric measurement or CountBright absolute counting beads (Invitrogen, Carlsbad, CA, USA). […]

| SMILES | CART19 proliferation (absolute CD3+ T cell count) (CART19 cells [1]; irradiated JeKo-1 1:1, 24 hours (FIG. 11A)) | killing of CART19 cells and Jeko-1 cells ([2]; 10 μM) | CART19-mediated killing of Jeko-1 lymphoma cells ([2]; different E:T ratios, 24 hours, vecabrutinib 1 μM or 10 μM, ibrutinib 1 μM, normalized to target cells with inhibitor alone (FIG. 10)) | CART19 antigen specific proliferation (absolute CD3+ T cell count) (CART19 cells [1]; irradiated JeKo-1 1:1, 24 hours (FIG. 1B)) | PI3K/AKT signaling z-score (Ingenuity Pathway Analysis) (CART19 cells [3]; 72 hours (FIG. 5F, FIG. 9)) | IL-8 signaling pathway z-score (Ingenuity Pathway Analysis) (CART19 cells [3]; 72 hours (FIG. 9)) | PDGF signaling z-score (Ingenuity Pathway Analysis) (CART19 cells [3]; 72 hours (FIG. 9)) | PTEN signaling pathway Z-score (Ingenuity Pathway Analysis) (CART19 cells [3]; 72 hours (FIG. 9)) | STAT 3 pathway z-score (Ingenuity Pathway Analysis) (CART19 cells [3]; 72 hours (FIG. 9)) | TH1 pathway Z-score (Ingenuity Pathway Analysis) (CART19 cells [3]; 72 hours (FIG. 9)) | CART19-mediated killing of tumor cells (tumor specific cytotoxicity), percentage of killing relative to control ([2]; CART19:JeKo-1 1:1, 24 hours, 1 μM or 10 μM vs DMSO (FIG. 1A)) | body weight change from day 0 (surrogate for CRS) (luciferase+JeKo-1 cells) |
| --- | --- | --- | --- | --- | --- | --- | --- | --- | --- | --- | --- | --- |
| C=CC(=O)N1CCC[C@@H](n2nc(-c3ccc(Oc4ccccc4)cc3)c3c(N)ncnc32)C1 [ibrutinib] | no effect | 100% | no effect | – | – | – | – | – | – | – | – | – |
| NC(=O)[C@H]1CCN(c2ncnc(N)c2F)C[C@@H]1N1CCC[C@@H](Nc2cc(Cl)cc(C(F)(F)F)c2)C1=O [vecabrutinib] | – | – | – | no significant effect | 0.707 | −1.941 | −1.667 | 0.333 | −3.051 | 0.816 | increases CART19-mediated killing of tumor cells; also recorded: dose-dependent increase | decreases CRS; also recorded: better maintained their body weight |
